Data taken from US9408889B2, “Fusion peptide designed to reduce plaque bacteria and yeast in the oral cavity” (RUTGERS, THE STATE UNIVERSITY OF NEW JERSEY, priority 2011, dated 2016).

Assays:
Streptococcus mutans = assay: Killing of Streptococcus mutans by lactoferrin variants and peptide; format: cell-based; conditions: synthetic peptide
From the text: Caries is the single most common chronic childhood disease, five times more common than asthma. Over 70% of children […] have cavities. Over 108 million Americans lack dental health insurance so that treatment of this infection is lacking. S. mutans is considered one of the microbes most associated with dental decay.
Others have shown that lactoferrin peptides have antimicrobial activity, but no one to date has shown that the antibacterial activity derived from this peptide is useful against organisms in the oral cavity. We have also determined that the peptide will have limited usefulness in the oral cavity unless it is linked to something that will allow the peptide to bind to a surface in the oral cavity. A fusion peptide comprising lactoferrin and statherin was previously developed, wherein the lactoferrin portion provided antimicrobial activity while the statherin portion enabled the fusion peptide to adhere to the tooth surface. […]
Lactoferrin (Lf or LF) is a multifunctional protein that is found in mammary secretion, tears and saliva and in the gastrointestinal tract. […] Further we then determined that pure lactoferrin would have limited usefulness in the oral cavity unless it was linked to something that would allow it to bind to the oral cavity.

bacteria = conditions: cited from earlier work
oral bacteria = conditions: bacteria grown in a broth media; cited from earlier work
[1] = previously demonstrated; cited from earlier work
Candida = assay: Two hour cell killing assay with supernatants from salivary-coated HAP or BECs; format: cell-based; conditions: sHAP incubated with peptide, washed, 1 hour release; 2 hour cell killing assay
Protocol: The procedures depicted in FIG. 5 were carried out with two LF fusion peptides (ST-LF and PAK-LF). Salivary-coated HAP was incubated with ST-LF peptide for 30 minutes and then washed with PBS and the supernatant tested. Fresh PBS was added, and the salivary-coated HAP was further incubated for 1 hour. The salivary-coated HAP was again rinsed and the supernatant solution was then tested for anti-candidal activity. The results are depicted in FIG. 6.

LF: FQWQRNMRKVR, lactoferrin peptide, lys form (listed as Homo sapiens)
killing of Streptococcus mutans (Streptococcus mutans): kills Streptococcus mutans

Penicillin
adherence of bacteria to drug-treated, washed SHA (bacteria): no effect
effective concentration against oral bacteria (oral bacteria): 1 µg/mL

ST-LF: DDDEEKFQWQRNMRKVR, statherin-lactoferrin fusion peptide of PCT/US08/51165 (ST-LF fusion peptide)
binding to tooth enamel surfaces [1]: bind to tooth enamel surfaces
anti-candidal activity of supernatant from salivary-coated HAP (Candida): no inhibition of Candida
